# Test results reported in patent publication US20220370515A1, “MEDICAL COMPOSITIONS AND THEIR USE IN TREATING PANCREATIC CANCER” (BIOMILLENIA SAS, priority 2019, published 2022).
# Entries after “also recorded” stand apart in the source; their conditions may differ.
# Key:
# Assay type in all cases: cell-based
# Malassezia restricta [1] = experiment: Disc diffusion inhibition assay (Example 1); settings: M. restricta lawn; 6 mm discs soaked with 15 ul supernatant or ketoconazole 1 mg/ml in DMSO; 5 days incubation
# Protocol: (§1) FIG. 1|Inhibition assays of the fungicide ketoconazole as positive control for inhibition and Kazachstania unispora supernatant on M. sympodialis, M. furfur, M. restricta and M. globosa. Inhibition assays were performed using the disc diffusion method. Discs were soaked with ketoconazole (1 mg/ml) or K. unispora supernatant and placed on agar plates containing a soft layer inoculated with a single culture of the different Malassezia species to be tested.
# (§2) In order to identify strains inhibiting Malassezia growth, inhibition assays were performed using the disc diffusion method. This method consists in disposing discs imbibed with potential inhibitory substances on Petri plates containing a strain of interest. After optimal growth of the strain of interest, growth inhibition can be observed around discs soaked with substances having an inhibitory effect. Potential inhibitory substances tested in this experiment are supernatants obtained after individually culturing a collection of fungal and bacterial strains. After an incubation of 10 days in their optimal broth, each culture was centrifuged and the supernatant was filtered and further stored at −20° C. Ketoconazole, a fungicide, was used as a positive control for Malassezia growth inhibition. It was diluted in dimethyl sulfoxide at 1 mg/ml. The collection of supernantants was tested on the following species from the genus Malassezia: Malassezia restricta, Malassezia globosa, Malassezia furfur and Malassezia sympodialis. All strains were streaked from −80° C. stock on Modified Leeming and Notman (MLN) agar plates and incubated 10 days at 30° C. A 5 ml liquid culture of each species was made in MLN broth and incubated at 30° C. for 2 days for M. furfur and M. sympodialis and 5 days for M. restricta and M. globosa. To allow a lawn growth of the different Malassezia strains tested, Petri plates were prepared as follows: a bottom layer of 50 ml Modified Sabouraud Dextrose (MSD) agar was poured in Petri plates. The soft agar, constituting the top layer, was a mix of 12.5 ml MSD agar, 10.5 ml MLN broth and 2 ml of liquid culture. Plates were allowed to dry for one hour, then, 6 mm-diameter Whatman™ discs were soaked with 15 ul of each thawed supernatants and ketoconazole and placed on the soft agar plate containing the solidified Malassezia monoculture layer. After an incubation of 5 days, inhibition area could be easily observed around discs. […] The strain from which the inhibitory supernatant has been produced was further sequenced using the Sanger technology. The internal transcribed spacer (ITS) of this strain was taxonomically assigned to the yeast Kazachstania unispora (BLASTn, 99% identity, 99% query cover, e-value 0.00).
# Malassezia furfur = experiment: Disc diffusion inhibition assay (Example 1); settings: M. furfur lawn; 6 mm discs soaked with 15 ul supernatant or ketoconazole 1 mg/ml in DMSO; 5 days incubation
# Protocol: as §1, §2
# Malassezia globosa [2] = experiment: Disc diffusion inhibition assay (Example 1); settings: M. globosa lawn; 6 mm discs soaked with 15 ul supernatant or ketoconazole 1 mg/ml in DMSO; 5 days incubation
# Protocol: as §1, §2
# Malassezia sympodialis = experiment: Disc diffusion inhibition assay (Example 1); settings: M. sympodialis lawn; 6 mm discs soaked with 15 ul supernatant or ketoconazole 1 mg/ml in DMSO; 5 days incubation
# Protocol: as §1, §2
# Malassezia restricta [3] = experiment: Modified disc diffusion assay with living culture (Example 2); settings: M. restricta lawn; discs soaked with 15 ul exponentially growing Acetobacter culture or ketoconazole 1 mg/mL in DMSO; 5 days incubation
# Protocol: (§3) FIG. 1|Inhibition assays of M. restricta and M. globose by growth of Acetobacter fabarum. Discs were soaked with ketoconazole (1 mg/ml in DMSO) or exponentially growing Acetobacter fabarum culture and placed on agar plates containing a soft layer inoculated with a single culture of the different Malassezia species to be tested. In the upper panel, inhibition of Malassezia globosa is shown; in the bottom panel, Malassezia restricta is shown.
# (§4) In order to identify strains whose growth inhibits Malassezia, inhibition assays were performed using a modified disc diffusion method. This method is similar to the classical disk diffusion method that consists in depositing discs imbibed with potential inhibitory substances on Petri plates containing a strain of interest, except that the disks were imbibed with a living culture of an Acetobacter strain. After optimal growth of the strain of interest, growth inhibition can be observed around discs on which the growth of inhibitory bacteria has occurred. Ketoconazole (at 1 mg/mL in DMSO) was used as a positive control for Malassezia growth inhibition. The effect of growth of Acetobacter was tested on Malassezia restricta and Malassezia globosa. All Malassezia strains were streaked from −80° C. stock on Modified Leeming and Notman (MLN) agar plates and incubated 10 days at 30° C. […]
# Malassezia globosa [4] = experiment: as above; settings: M. globosa lawn; discs soaked with 15 ul exponentially growing Acetobacter culture or ketoconazole 1 mg/mL in DMSO; 5 days incubation
# Protocol: as §3, §4
structure (smiles),measurement,setting,value
CC(=O)N1CCN(c2ccc(OCC3COC(Cn4ccnc4)(c4ccc(Cl)cc4Cl)O3)cc2)CC1 (stereo not drawn) [ketoconazole],growth inhibition (inhibition halo around disc),Malassezia restricta [1],inhibits growth of all 4 Malassezia species tested; also recorded: inhibited all 4 Malassezia species tested
same,growth inhibition (inhibition halo around disc),Malassezia furfur,inhibits growth of all 4 Malassezia species tested; also recorded: inhibited all 4 Malassezia species tested
same,growth inhibition (inhibition halo around disc),Malassezia globosa [2],inhibits growth of all 4 Malassezia species tested; also recorded: inhibited all 4 Malassezia species tested
same,growth inhibition (inhibition halo around disc),Malassezia sympodialis,inhibits growth of all 4 Malassezia species tested; also recorded: inhibited all 4 Malassezia species tested
same,growth inhibition (inhibition halo around disc),Malassezia restricta [3],inhibits growth of both Malassezia species tested; also recorded: inhibited both Malassezia restricta and Malassezia globose
same,growth inhibition (inhibition halo around disc),Malassezia globosa [4],inhibits growth of both Malassezia species tested; also recorded: inhibited both Malassezia restricta and Malassezia globose
